Activity calls are given as the source filed them. The calls are words filed in the database; no cut-off is given here.
Assays:
[1] = biological target: Tyrosine-protein kinase ABL1 (Homo sapiens) (UniProt P00519); experiment: Inhibition of human recombinant N-terminal His-tagged ABL (27 residues) expressed in baculovirus infected sf9 cells using KKGEAIYAAPFA-NH2 as substrate at 100 uM incubated for 10 mins by scintillation counting method relative to control
[2] = biological target: Receptor-type tyrosine-protein kinase FLT3 (Homo sapiens) (UniProt P36888); experiment: Inhibition of human recombinant N-terminal GST-His6-tagged FLT3 (R571-S993 residues) expressed in baculovirus infected sf9 cells using KVEKIGEGTYGVVYK as substrate at 100 uM incubated for 10 mins by scintillation counting method relative to control
Sequence of Receptor-type tyrosine-protein kinase FLT3 (Homo sapiens) (P36888 whole entry, the tested form may be a part): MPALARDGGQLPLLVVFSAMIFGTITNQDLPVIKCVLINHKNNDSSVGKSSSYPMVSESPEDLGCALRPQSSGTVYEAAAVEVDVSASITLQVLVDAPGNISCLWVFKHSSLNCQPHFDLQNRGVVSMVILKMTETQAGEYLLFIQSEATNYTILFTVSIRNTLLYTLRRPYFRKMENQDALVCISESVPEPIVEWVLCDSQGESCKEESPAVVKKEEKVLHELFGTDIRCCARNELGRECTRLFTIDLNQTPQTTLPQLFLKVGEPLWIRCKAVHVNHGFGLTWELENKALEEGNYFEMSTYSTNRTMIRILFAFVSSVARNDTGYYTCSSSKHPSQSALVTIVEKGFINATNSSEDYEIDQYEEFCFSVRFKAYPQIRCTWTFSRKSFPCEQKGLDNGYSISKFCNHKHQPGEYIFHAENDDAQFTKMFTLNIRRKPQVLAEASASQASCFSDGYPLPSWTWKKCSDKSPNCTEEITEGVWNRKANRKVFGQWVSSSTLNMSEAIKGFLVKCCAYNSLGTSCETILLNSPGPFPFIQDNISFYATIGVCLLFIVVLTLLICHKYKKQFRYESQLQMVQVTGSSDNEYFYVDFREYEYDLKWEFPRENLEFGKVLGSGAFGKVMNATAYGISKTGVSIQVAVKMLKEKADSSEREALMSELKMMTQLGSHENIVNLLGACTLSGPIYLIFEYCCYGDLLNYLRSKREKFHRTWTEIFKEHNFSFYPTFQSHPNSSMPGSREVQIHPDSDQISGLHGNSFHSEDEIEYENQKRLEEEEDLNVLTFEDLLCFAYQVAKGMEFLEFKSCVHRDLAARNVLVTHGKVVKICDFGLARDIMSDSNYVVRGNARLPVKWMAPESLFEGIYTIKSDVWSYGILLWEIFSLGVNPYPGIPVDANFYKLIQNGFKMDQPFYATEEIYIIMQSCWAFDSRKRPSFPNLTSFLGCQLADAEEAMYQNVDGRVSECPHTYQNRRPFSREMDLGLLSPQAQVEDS

[3] = biological target: CDK2/Cyclin A2 (Homo sapiens) (UniProt P24941+P20248); experiment: Inhibition of full length human recombinant N-terminal GST-tagged CDK2 (M1-L298 residues)/Cyclin A2 (M1-L432 residues) expressed in baculovirus infected sf9 cells using histone H1 as substrate at 100 uM incubated for 10 mins by scintillation counting method relative to control
[4] = biological target: CDK9/cyclin T1 (Homo sapiens) (UniProt O60563+P50750); experiment: Inhibition of full length human recombinant N-terminal GST-His6-tagged CDK9 (M1-F372 residues)/Cyclin T1 (M1-K726 residues) expressed in baculovirus infected sf9 cells using CDKtide as substrate at 100 uM incubated for 10 mins by scintillation counting method relative to control
[5] = biological target: CDK9/Cyclin K (Homo sapiens) (UniProt P50750+O75909); experiment: Inhibition of full length human recombinant N-terminal GST-tagged CDK9/Cyclin K expressed in baculovirus infected sf9 cells using CDKtide as substrate at 100 uM incubated for 10 mins by scintillation counting method relative to control
[6] = biological target: Cyclin-dependent kinase 4/cyclin D1 (Homo sapiens) (UniProt P11802+P24385); experiment: Inhibition of full length human recombinant N-terminal GST-tagged CDK4/Cyclin D1 expressed in baculovirus infected sf9 cells using RB-CTF as substrate at 100 uM incubated for 10 mins by scintillation counting method relative to control
[7] = biological target: Phosphatidylinositol 4-kinase beta (Homo sapiens) (UniProt Q9UBF8); experiment: Inhibition of full length human recombinant N-terminal GST-His-tagged PI4KB expressed in sf9 cells using phosphatidyl inositol:phosphatidyl serine (1:3) substrate at 100 uM by ADP-Glo kinase assay relative to control
[8] = biological target: Serine/threonine-protein kinase pim-1 (Homo sapiens) (UniProt P11309); experiment: Inhibition of full length human recombinant N-terminal GST-tagged PIM1 expressed in Escherichia coli using S6 Kinase/Rsk2 peptide2 as substrate at 100 uM incubated for 10 mins by scintillation counting method relative to control
Sequence of Serine/threonine-protein kinase pim-1 (Homo sapiens) (P11309 whole entry, looked up): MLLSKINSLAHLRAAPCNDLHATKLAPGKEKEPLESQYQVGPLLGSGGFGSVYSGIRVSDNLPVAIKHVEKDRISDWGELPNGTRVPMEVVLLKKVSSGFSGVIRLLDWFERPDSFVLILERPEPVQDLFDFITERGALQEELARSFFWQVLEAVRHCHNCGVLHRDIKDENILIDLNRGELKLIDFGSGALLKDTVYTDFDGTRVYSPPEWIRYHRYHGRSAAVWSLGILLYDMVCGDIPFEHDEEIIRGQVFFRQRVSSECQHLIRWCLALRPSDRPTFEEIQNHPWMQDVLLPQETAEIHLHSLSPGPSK

[9] = biological target: T1, Leucine-rich repeat serine/threonine-protein kinase 2 (Homo sapiens, UniProt Q5S007, G2019S); experiment: Mixed type inhibition of human recombinant GST-tagged LRRK2 G2019S mutant (970 residues) expressed in baculovirus expression system assessed as enzyme-inhibitor complex by Michaelis-Menten kinetics in presence of varying level of ATP
T1 sequence (Q5S007 whole entry G2019S): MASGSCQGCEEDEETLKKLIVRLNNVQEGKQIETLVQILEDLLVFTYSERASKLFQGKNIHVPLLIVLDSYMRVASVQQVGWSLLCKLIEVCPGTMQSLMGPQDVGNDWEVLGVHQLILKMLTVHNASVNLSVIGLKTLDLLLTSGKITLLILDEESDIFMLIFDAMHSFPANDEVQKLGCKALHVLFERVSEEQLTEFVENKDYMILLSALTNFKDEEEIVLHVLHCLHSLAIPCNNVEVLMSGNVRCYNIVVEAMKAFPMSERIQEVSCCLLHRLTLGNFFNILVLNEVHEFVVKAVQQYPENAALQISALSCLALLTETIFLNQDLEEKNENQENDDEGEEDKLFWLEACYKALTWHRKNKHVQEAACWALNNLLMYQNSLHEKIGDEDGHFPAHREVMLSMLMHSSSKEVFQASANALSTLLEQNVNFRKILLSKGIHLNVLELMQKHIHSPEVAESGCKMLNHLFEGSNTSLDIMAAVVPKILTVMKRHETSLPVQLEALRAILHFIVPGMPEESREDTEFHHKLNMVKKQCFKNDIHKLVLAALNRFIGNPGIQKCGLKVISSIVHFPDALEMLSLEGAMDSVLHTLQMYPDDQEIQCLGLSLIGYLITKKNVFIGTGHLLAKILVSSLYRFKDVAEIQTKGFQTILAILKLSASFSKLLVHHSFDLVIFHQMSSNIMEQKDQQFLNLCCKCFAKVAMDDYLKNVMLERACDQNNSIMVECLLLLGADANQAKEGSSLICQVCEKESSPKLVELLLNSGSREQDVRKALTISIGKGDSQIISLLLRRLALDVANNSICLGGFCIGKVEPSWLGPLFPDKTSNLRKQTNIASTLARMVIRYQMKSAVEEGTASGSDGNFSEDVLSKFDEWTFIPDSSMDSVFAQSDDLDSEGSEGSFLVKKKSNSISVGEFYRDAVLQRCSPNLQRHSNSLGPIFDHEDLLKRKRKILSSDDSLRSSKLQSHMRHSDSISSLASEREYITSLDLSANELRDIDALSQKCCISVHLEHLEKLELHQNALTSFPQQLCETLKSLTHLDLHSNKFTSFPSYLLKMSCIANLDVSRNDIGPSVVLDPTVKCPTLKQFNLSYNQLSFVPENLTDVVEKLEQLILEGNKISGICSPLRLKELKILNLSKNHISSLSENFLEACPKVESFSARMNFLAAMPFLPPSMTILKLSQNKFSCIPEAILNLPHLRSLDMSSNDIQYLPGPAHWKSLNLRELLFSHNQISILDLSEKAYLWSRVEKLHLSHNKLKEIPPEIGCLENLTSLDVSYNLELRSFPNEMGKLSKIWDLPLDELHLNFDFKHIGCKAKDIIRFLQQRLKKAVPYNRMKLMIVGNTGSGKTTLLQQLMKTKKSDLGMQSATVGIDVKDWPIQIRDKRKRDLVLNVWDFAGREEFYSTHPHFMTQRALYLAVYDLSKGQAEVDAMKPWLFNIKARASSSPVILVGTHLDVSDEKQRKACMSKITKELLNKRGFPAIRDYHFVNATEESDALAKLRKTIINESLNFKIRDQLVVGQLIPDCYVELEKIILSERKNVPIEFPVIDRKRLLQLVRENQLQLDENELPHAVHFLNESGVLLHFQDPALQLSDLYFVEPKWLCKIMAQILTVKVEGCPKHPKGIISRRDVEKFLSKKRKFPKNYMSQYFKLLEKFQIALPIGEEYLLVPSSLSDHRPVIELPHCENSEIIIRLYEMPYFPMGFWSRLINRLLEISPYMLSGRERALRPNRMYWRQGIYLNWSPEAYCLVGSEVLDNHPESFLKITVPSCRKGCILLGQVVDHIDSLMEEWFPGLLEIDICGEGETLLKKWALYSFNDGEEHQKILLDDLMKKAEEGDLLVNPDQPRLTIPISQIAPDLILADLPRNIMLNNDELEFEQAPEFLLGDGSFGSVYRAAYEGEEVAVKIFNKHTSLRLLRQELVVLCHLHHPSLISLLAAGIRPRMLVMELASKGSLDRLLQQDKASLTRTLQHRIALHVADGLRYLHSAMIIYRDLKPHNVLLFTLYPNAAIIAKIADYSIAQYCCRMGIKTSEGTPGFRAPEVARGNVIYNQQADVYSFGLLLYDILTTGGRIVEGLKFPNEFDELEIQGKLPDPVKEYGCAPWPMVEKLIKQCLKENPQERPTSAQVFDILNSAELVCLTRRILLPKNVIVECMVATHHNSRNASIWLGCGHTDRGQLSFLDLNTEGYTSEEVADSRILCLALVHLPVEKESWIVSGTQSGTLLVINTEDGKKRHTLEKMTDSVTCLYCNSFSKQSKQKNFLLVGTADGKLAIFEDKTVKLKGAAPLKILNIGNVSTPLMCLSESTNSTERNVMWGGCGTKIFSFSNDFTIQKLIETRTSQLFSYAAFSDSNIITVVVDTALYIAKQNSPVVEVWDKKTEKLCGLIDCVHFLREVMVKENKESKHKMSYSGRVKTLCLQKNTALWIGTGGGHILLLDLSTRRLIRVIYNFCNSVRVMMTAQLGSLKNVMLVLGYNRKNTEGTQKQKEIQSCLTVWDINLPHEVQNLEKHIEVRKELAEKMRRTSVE

[10] = biological target: T1, Leucine-rich repeat serine/threonine-protein kinase 2; experiment: Mixed type inhibition of human recombinant GST-tagged LRRK2 G2019S mutant (970 residues) expressed in baculovirus expression system assessed as enzyme-substrate-inhibitor complex by Michaelis-Menten kinetics in presence of varying level of ATP
[11] = tested on: Leucine-rich repeat serine/threonine-protein kinase 2 (Homo sapiens), Q5S007 [G2019S]; experiment: Ratio of enzyme-substrate-inhibitor complex Ki to enzyme-inhibitor complex Ki for human recombinant GST-tagged LRRK2 G2019S mutant (970 residues) expressed in baculovirus expression system
Sequence of Leucine-rich repeat serine/threonine-protein kinase 2 (Homo sapiens), Q5S007 [G2019S] (Q5S007 whole entry G2019S): as above

[12] = biological target: Leucine-rich repeat serine/threonine-protein kinase 2 (Homo sapiens) (UniProt Q5S007); experiment: Inhibition of human recombinant N-terminal GST-tagged LRRK2 (968 residues) expressed in baculovirus infected sf9 cells using LRRKtide as substrate at 50 uM incubated for 10 mins by scintillation counting method in presence of [gamma33P]ATP
Sequence of Leucine-rich repeat serine/threonine-protein kinase 2 (Homo sapiens) (Q5S007 whole entry): as the sequence (Q5S007 whole entry G2019S) above, with S2019G counted along it

[13] = tested on: Leucine-rich repeat serine/threonine-protein kinase 2 (Homo sapiens), Q5S007 [G2019S]; experiment: Inhibition of human recombinant GST-tagged LRRK2 G2019S mutant (970 residues) expressed in baculovirus expression system using LRRKtide as substrate at 50 uM incubated for 10 mins by scintillation counting method in presence of [gamma33P]ATP
[14] = biological target: Leucine-rich repeat serine/threonine-protein kinase 2 (Homo sapiens) (UniProt Q5S007); experiment: Inhibition of human recombinant N-terminal GST-tagged LRRK2 (968 residues) expressed in baculovirus infected sf9 cells using LRRKtide as substrate incubated for 10 mins by scintillation counting method in presence of [gamma33P]ATP
[15] = tested on: Leucine-rich repeat serine/threonine-protein kinase 2 (Homo sapiens), Q5S007 [G2019S]; experiment: Inhibition of human recombinant GST-tagged LRRK2 G2019S mutant (970 residues) expressed in baculovirus expression system using LRRKtide as substrate incubated for 10 mins by scintillation counting method in presence of [gamma33P]ATP
[16] = Selectivity ratio of ID50 for human recombinant N-terminal GST-tagged LRRK2 (968 residues) expressed in baculovirus infected sf9 cells to ID50 for human recombinant GST-tagged LRRK2 G2019S mutant (970 residues) expressed in baculovirus expression system
[17] = biological target: Proto-oncogene tyrosine-protein kinase Src (Homo sapiens) (UniProt P12931); experiment: Inhibition of full length human recombinant N-terminal His6-tagged SRC expressed in baculovirus infected sf21 cells using KVEKIGEGTYGVVYK as substrate at 100 uM incubated for 10 mins by scintillation counting method relative to control
[18] = biological target: Glycogen synthase kinase-3 beta (Homo sapiens) (UniProt P49841); experiment: Inhibition of full length human recombinant N-terminal GST-tagged GSK3beta expressed in baculovirus infected sf9 cells using GSK3 substrate at 100 uM incubated for 10 mins by scintillation counting method relative to control
[19] = biological target: Tyrosine-protein kinase HCK (Homo sapiens) (UniProt P08631); experiment: Inhibition of full length human recombinant N-terminal GST-His6-tagged HCK (M1 to P505 residues) expressed in baculovirus infected sf9 cells using KVEKIGEGTYGVVYK as substrate at 100 uM incubated for 10 mins by scintillation counting method relative to control
[20] = biological target: Focal adhesion kinase 1 (Homo sapiens) (UniProt Q05397); experiment: Inhibition of human recombinant FAK expressed in baculovirus infected sf9 cells using KVEKIGEGTYGVVYK as substrate at 100 uM incubated for 10 mins by scintillation counting method relative to control
Sequence of Focal adhesion kinase 1 (Homo sapiens) (Q05397 2-1052 limits assumed): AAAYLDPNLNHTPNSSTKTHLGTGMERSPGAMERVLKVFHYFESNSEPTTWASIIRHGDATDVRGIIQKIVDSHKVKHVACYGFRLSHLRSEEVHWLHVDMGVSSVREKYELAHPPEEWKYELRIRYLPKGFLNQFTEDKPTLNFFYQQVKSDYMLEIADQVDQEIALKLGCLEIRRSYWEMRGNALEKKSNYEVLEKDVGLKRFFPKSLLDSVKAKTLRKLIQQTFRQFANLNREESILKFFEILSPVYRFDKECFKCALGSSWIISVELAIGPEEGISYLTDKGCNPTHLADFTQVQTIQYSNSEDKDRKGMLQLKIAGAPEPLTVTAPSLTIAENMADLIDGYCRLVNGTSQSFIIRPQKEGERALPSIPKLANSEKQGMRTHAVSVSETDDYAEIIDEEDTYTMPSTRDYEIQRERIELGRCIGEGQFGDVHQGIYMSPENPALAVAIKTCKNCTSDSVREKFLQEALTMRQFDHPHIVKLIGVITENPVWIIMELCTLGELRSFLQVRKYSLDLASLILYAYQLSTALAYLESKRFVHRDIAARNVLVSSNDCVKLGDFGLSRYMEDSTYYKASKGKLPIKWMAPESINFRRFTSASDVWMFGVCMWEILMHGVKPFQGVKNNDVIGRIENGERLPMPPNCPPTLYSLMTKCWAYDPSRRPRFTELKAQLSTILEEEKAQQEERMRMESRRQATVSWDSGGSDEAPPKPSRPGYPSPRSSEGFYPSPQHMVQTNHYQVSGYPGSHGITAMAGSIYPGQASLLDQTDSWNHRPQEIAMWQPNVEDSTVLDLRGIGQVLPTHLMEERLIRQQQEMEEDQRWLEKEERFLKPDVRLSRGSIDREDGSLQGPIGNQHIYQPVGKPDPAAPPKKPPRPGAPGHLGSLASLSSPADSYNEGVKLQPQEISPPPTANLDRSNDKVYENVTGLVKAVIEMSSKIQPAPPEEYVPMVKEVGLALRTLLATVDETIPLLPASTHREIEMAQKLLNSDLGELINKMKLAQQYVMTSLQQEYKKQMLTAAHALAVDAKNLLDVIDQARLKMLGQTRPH

[21] = biological target: CDK6/cyclin D1 (Homo sapiens) (UniProt P24385+Q00534); experiment: Inhibition of full length human recombinant N-terminal His-tagged CDK6/N-terminal GST-tagged Cyclin D1 expressed in baculovirus infected sf9 cells using RB-CTF as substrate at 100 uM incubated for 10 mins by scintillation counting method relative to control
[22] = biological target: Dual specificity tyrosine-phosphorylation-regulated kinase 1A (Rattus norvegicus) (UniProt Q63470); experiment: Inhibition of recombinant rat N-terminal GST-tagged DYRK1A (1 to 499 residues) expressed in Escherichia coli using KKISGRLSPIMTEQ-NH2 as substrate at 100 uM incubated for 10 mins by scintillation counting method relative to control
[23] = biological target: Leucine-rich repeat serine/threonine-protein kinase 2 (Homo sapiens) (UniProt Q5S007); experiment: Inhibition of human recombinant N-terminal GST-tagged LRRK2 (968 residues) expressed in baculovirus infected sf9 cells using LRRKtide as substrate at 100 uM incubated for 10 mins by scintillation counting method in presence of [gamma33P]ATP
[24] = tested on: Leucine-rich repeat serine/threonine-protein kinase 2 (Homo sapiens), Q5S007 [G2019S]; experiment: Inhibition of human recombinant GST-tagged LRRK2 G2019S mutant (970 residues) expressed in baculovirus expression system using LRRKtide as substrate at 100 uM incubated for 10 mins by scintillation counting method in presence of [gamma33P]ATP
[25] = biological target: T1, Leucine-rich repeat serine/threonine-protein kinase 2; experiment: Competitive inhibition of human recombinant GST-tagged LRRK2 G2019S mutant (970 residues) expressed in baculovirus expression system assessed as enzyme-inhibitor complex by Michaelis-Menten kinetics in presence of varying level of ATP

SMILES | inhibition [1] | inhibition [2] | inhibition [3] | inhibition [4] | inhibition [5] | inhibition [6] | inhibition [7] | inhibition [8] | Ki [9] | ID50 [14] | ID50 [15] | Selectivity ratio [16] | inhibition [17] | inhibition [18] | inhibition [19] | inhibition [20] | inhibition [21] | inhibition [22] | inhibition [23] | inhibition [24] | further results
C/C(=N\Nc1ccc2ccccc2n1)c1ccccc1O | 6% | 3% | 3% | 1% | 2% | 7% | 0% | 3% | 3.45 µM | 32.6 µM | 4.8 µM | 7.5 | 5% | 1% | 0% | 1% | 1% | 9% | – | – | Ki [10]: 18.4 µM; Ratio [11]: 5; inhibition [12]: Active; inhibition [13]: Active
COc1ccc(/C=N/Nc2ccccn2)cc1 | – | – | – | – | – | – | – | – | – | – | – | – | – | – | – | – | – | – | Active | Active | –
COc1ccc(/C=N/Nc2nc(C)cc(C)c2C#N)cc1 | – | – | – | – | – | – | – | – | – | – | – | – | – | – | – | – | – | – | Active | Active | –
Cc1cc(N/N=C/c2ccc(OC(=O)c3ccc(N4CCN(C)CC4)cc3)cc2)nc2ccccc12 | – | – | – | – | – | – | – | – | – | – | – | – | – | – | – | – | – | – | inactive | inactive | –
COc1ccc(/C=N/Nc2ncccc2Cl)cc1OC | – | – | – | – | – | – | – | – | – | – | – | – | – | – | – | – | – | – | Active | Active | –
COc1ccc(-c2nnc3c(NCCN4CCOCC4)cccn23)cc1OC | 19% | 0% | 22% | 24% | 38% | 10% | 3% | 29% | – | 32 µM | 9.1 µM | 3.5 | 40% | 14% | 0% | 8% | 18% | 26% | Active | Active | Ki [25]: 5.61 µM
COc1ccc(/C=N/Nc2cc(C)c3ccccc3n2)cc1 | 43% | 50% | 9% | 0% | 53% | 9% | 32% | 20% | 0.74 µM | 3 µM | 0.9 µM | 4 | 31% | 0% | 0% | 11% | 42% | 0% | – | – | Ki [10]: 1.8 µM; inhibition [12]: Active; inhibition [13]: Active
COc1ccc(/C=N/Nc2nc3c(c(-c4ccccc4)c2C#N)CCCC3)cc1 | – | – | – | – | – | – | – | – | – | – | – | – | – | – | – | – | – | – | Active | Active | –
Cc1cc(N/N=C/c2ccc(O)cc2)nc2ccccc12 | 24% | 62% | 12% | 0% | 24% | 16% | 31% | 43% | 0.55 µM | 2.7 µM | 1.3 µM | 2.4 | 21% | 0% | 0% | 13% | 40% | 22% | – | – | Ki [10]: 2.59 µM; Ratio [11]: 5; inhibition [12]: Active; inhibition [13]: Active
